Source: US20230302154A1, “NANODRUGS FOR TARGETED DRUG DELIVERY AND USE THEREOF” (priority 2020, published 2023)

Assays:
HMC-3 cells [1] = experiment: Cell viability (MTS) assay on HMC-3 cells; assay type: cell-based, human; settings: HMC-3, 72 hours, 0.01-0.1 mg/mL
Experimental: (§1) To characterize the nanodisc formulation in the biological system in in vitro conditions, it was necessary to screen the formulation for cytotoxicity and ensure that it would not induce significant cytotoxicity to microglial (HMC-3) and neuronal (SH-SY5Y) cells. […] A cell viability (MTS) study was performed for both 1:20 and 1:4 NDs as per the manufacturer's instruction (G3582, Promega, Madison, WI, USA). Nanodiscs were introduced to these cells separately at varying TFV drug concentrations of 0.01-0.1 mg/mL and incubated for 72 hours.
(§2) Microglia and Neuroblastoma Cell Culture: Human embryonic microglial clone 3 cells (HMC-3) and human neuroblastoma cells (SH-SY5Y) were purchased from the American Type Culture Collection (ATCC) Manassas, VA, USA). The transformed cell lines retain the properties of primary cells. They represent homogeneous cell populations that can be grown indefinitely and might represent a convenient system for their functions' biochemical analysis. Cells were cultured in Eagle's Minimum Essential Medium (EMEM) (ATCC®, Manassas, VA, USA) supplemented with a fetal bovine serum to a final concentration of 10% at 37° C. in a humidified, 5% CO2 atmosphere as recommended by the supplier.
(§3) Cells were cultured in 96-well black bottom plates at 50,000 cells per well and incubated at 37° C. in a humidified, 5% CO2 atmosphere for 24 hours to allow for 70% confluence. […]

SH-SY5Y cells [2] = experiment: Cell viability (MTS) assay on SH-SY5Y cells; assay type: cell-based, human; settings: 72 hours, 0.01-0.1 mg/mL
Experimental: as §1, §2, §3

[3] = In vitro sustained drug release assay of liposomal structure (equilibrium dialysis in PBS, NanoDrop); assay type: physicochemical
Experimental: In order to study the liposome formulation's extended drug release kinetics, a drug release study was done in PBS using an equilibrium dialysis system. […] Liposome 1 has a lipid charge density of 5%. The released TFV from the dialysis bag into the outside environment was sampled at different time points up to 14 days and was measured by a NanoDrop Microvolume Spectrophotometer. Simultaneously, a separate setup with the same concentration and volume of FD-TFV was used as a control. Results were expressed as the cumulative total of TFV released into the system compared to the initial concentration (FIG. 18). […] This downward trend may be caused by byproducts from the FD-TFV in the external environment.

SH-SY5Y cells [4] = experiment: ROS production (DCF-DA) in SH-SY5Y cells; assay type: cell-based, human; settings: 0.01-0.1 mg/mL TFV
Experimental: (§4) As a first approach to predict the inflammatory response on neuronal cells, the ROS production of HMC-3 and SH-SY5Y cells was evaluated. HMC-3 (FIG. 12A) and SH-SY5Y cells (FIG. 12B) were treated with the different drug-to-lipid ratios of 1:20 and 1:4 at varying TFV drug concentrations (0.01-0.1 mg/mL). A negative control antioxidant (catalase) and positive control (H2O2) were used on non-treated cells. A simultaneous setup was also performed for empty NDs at varying lipid concentrations.
(§5) Reactive oxygen species of ND: Reactive oxygen species (ROS) productions in HMC-3 and SH-SY5Y cells following nanodisc treatment were detected using dichlorofluorescein diacetate assay (DCF-DA; Molecular Probes, Eugene, OR). Cells were cultured in 96-well black bottom plates at 100,000 cells per well and incubated at 37° C. in a humidified, 5% CO2 atmosphere for 24 hours to allow for 70% confluence. The following day, cell media was taken out from each well and replenished with 100 μl of PBS+1% FBS. […] A study of FD-TFV was also measured in similar conditions simultaneously. […] Following 2 hours, the first reading of cell ROS production was read in a BioTek Synergy HTH.T. multi-mode microplate reader (BioTek, Winooski, VT, USA) and then taken every hour for the following 18 hours (excitation 485 nm and emission 528 nm; BioTek). […]

[5] = In vitro sustained drug release assay of ND (equilibrium dialysis in PBS, LC-MS/MS); assay type: physicochemical
Experimental: In vitro sustained drug release assay: The nanodisc formulation's extended drug release profile was determined in phosphate buffer saline (PBS) using an equilibrium dialysis system. The released TFV from the dialysis bag into the outside environment was sampled at different time points up to 14 days and was measured by LC-MS/MS. The dialysis bag used in these experiments was selected for its pore size of 6-8 kDa MWCO. […] Simultaneously, a separate set up with the same concentration and volume of FD-TFV was used as a control. Results were expressed as the percentage of total TFV released into the system compared to the initial concentration. It was observed that 63% of FD-TFV was release within 4 hours. […] (FIG. 14).
In vitro sustained drug release assay of ND: The drug release kinetics of the nanodisc-based drug delivery was determined in PBS using equilibrium dialysis. […] TFV was monitored by LC-MS/MS using an AB Sciex (Framingham, MA) 6500+QTRAP® mass spectrometer coupled to a Shimadzu (Columbia, MD) NexeraX2 LC. […] LC-MS/MS then evaluated the supernatant. […] The limit of quantitation (LOQ) was defined as the lowest concentration at which back-calculation yielded a concentration within 20% of theoretical and above the LOD.

[6] = mouse, in vivo, iv, 20 mg/kg
Experimental: PK data analysis was performed using the plasma concentrations of TFV in the mice (FIG. 17). Plasma samples were collected for up to 48 hrs and 72 hours.
An Envigo Teklad Certified Global 18% protein rodent diet, #2018C, and water were provided to the mice ad libitum. Mice were administered a single dose intravenous (iv) dose administration. The average weight of Phase A and Phase B mice were 17.3-18.6 g and 17.2-23.4 g, respectively. All procedures were per the current Association for Assessment and Accreditation of Laboratory Animal Care (AAALAC) recommendations. In vivo studies were carried out in collaboration with NIH-DAIDS Preclinical Contract Services.
During the PK study, 24 males and 24 females used for this phase were divided into two groups (Table 5). […]
TFV was detected with the mass spectrometer in positive MRM (multiple reaction monitoring) mode by following the precursor to fragment ion transitions 288.1 to 176.2 for TFV. A Phenomenex Synergi Polar-RP column (4 microns, 100×2 mm) was used for chromatography with the following conditions: Buffer A: 2% acetic acid in water, Buffer B: 0.1% acetic acid in acetonitrile, 0-2.0 min 2% B, 2.0-2.01 min gradient to 98% B, 2.01-3.5 min gradient to 98% B, and then 3.51-5 min gradient to 2% B. The concentration of drug in each timepoint sample was quantified using Analyst 1.7 software (AB Sciex).

HMC-3 cells [7] = experiment: In vitro cellular uptake study in microglial cells; assay type: in vitro ADME, human; settings: HMC-3, 0.0625 mg/mL, monitored over 24 hours
Experimental: Cell uptake and characterization of extended-release from nanodisc: To evaluate the intracellular uptake of TFV in microglial cells an in vitro cellular uptake study was performed. The cellular uptake of the two formulations (1:20 ND and 1:4 ND) and FD-TFV as a control were evaluated simultaneously and the uptake and release of TFV was monitored over 24 hours. […] This small window of cellular uptake may indicate that there is a certain capacity that microglia cells can uptake TFV. […] However, the short windows of drug uptake by the microglial cells could indicate that the size and surface charge of the ND could be a contributing factor.
Cell uptake and characterization of extended-release from ND: Microglial uptake, retention, and release of 1:20 ND, 1:4 ND, and FD-TFV were determined. HMC-3 cells were cultured in 24-well at 50,000 cells per well and incubated at 37° C. in a humidified, 5% CO2 atmosphere for 24 hours to allow for 70% confluence. After 24 hours of cell growth, samples were assigned into different treatment groups of 1:20 ND, 1:4 ND, and FD-TFV and treated at 0.0625 mg/mL concentration. Following drug treatment, samples were incubated at 37° C., and cell uptake was determined every hour over 8 hours and at a 24-hour timepoint. For each sample, media was collected into microcentrifuge tubes and stored at −20° C. for later analysis. […]

HMC-3 cells [8] = experiment: ROS production (DCF-DA) in HMC-3 cells; assay type: cell-based, human; settings: 0.01-0.1 mg/mL TFV
Experimental: as §4, §5

C[C@H](Cn1cnc2c(N)ncnc21)OCP(=O)(O)O [FD-TFV, Tenofovir]
cytotoxicity compared to the control (HMC-3 cells [1]): not considered to be significantly toxic | cytotoxicity compared to the control (SH-SY5Y cells [2]): not considered to be significantly toxic | drug release of TFV within 4 hours ([3]; NanoDrop spectrophotometer): 100% | drug release (comparison with liposomes) ([3]; up to 14 days): significantly faster drug release than the liposomes | ROS production compared to the control (SH-SY5Y cells [4]): did not induce a significant increase | TFV release profile (comparison) ([5]; PBS dialysis, up to 14 days): significantly faster TFV release | drug release within 4 hours ([5]; PBS, dialysis 6-8 kDa MWCO, 37° C., LC-MS/MS): 63% | AUCinf values (comparison with ND formulation) [6]: higher | plasma exposure higher than for ND (mean C0, AUClast and AUCinf) [6]: 2 fold | time of maximum uptake (HMC-3 cells [7]): 2 h | ROS production compared to the control (HMC-3 cells [8]): did not induce a significant increase
